Reference: paper PMC6270001, “Synthesis and Antiviral Activity of N-Phenylbenzamide Derivatives, a Novel Class of Enterovirus 71 Inhibitors” (Molecules, 2013)

What was measured:
[1] = tested on: EV 71 strain BrCr (genotype A); assay: Anti EV 71 activity assay (CPE, Reed & Muench) in Vero cells, strain BrCr; type: cell-based, Enterovirus 71; conditions: for IC50: EV 71 strain BrCr, Vero cells, 100 TCID50, CPE, average ± SD, n=3; for SI BrCr: selectivity index TC50/IC50, strain BrCr, "-" stands for no antiviral selectivity
Method: (§1) The EV 71 was divided into three genotypes A, B and C based on nucleotide sequence comparisons, and genotypes B and C were subdivided into B1-B5 and C1-C5 [6, 10]. Genotype C is the most common genotype found in mainland China, especially the C4 subgenotype. Consequently, the intermediate compounds 1a, 1c and 1e, and the final products 2a–c, 3a–g, and 5a–f were evaluated for their anti-EV 71 activity in Vero cells against genotypes C4 (strains SZ-98 and JS-52-3), C2 (strain H) and A (strain BrCr). […] The IC50 values were calculated by the Reed and Muench method, and the cytotoxicity was monitored by the CPE method.
(§2) Vero cells were purchased from the American Type Culture Collection and cultured in Minimum Essential Medium (MEM) supplemented with 10% Fetal Bovine Serum (FBS) and antibiotics (100 U/mL penicillin G, 100 μg/mL streptomycin). Enterovirus 71 (EV 71) strain SZ-98 was kindly provided by Dr. Qi Jin, Institute of Pathogen Biology, Chinese Academy of Medical Science and Peking Union Medical School. Enterovirus 71 (EV 71) strain BrCr (VR-1775) was purchased from the American Type Culture Collection. Enterovirus 71 (EV 71) strain JS-52-3 was kindly provided by Dr. Xiang-zhong Ye, Beijing Wantai Biological Pharmacy Enterprise Co., Ltd. All Enterovirus 71 strains were propagated in Vero cells.
(§3) All compounds were dissolved in DMSO at 20 mg/mL as a stock solution and further diluted in culture medium prior to use. The initial concentration in all cytotoxicity assay was 200 µg/mL, and inhibition assay for anti-EV71 experiments was from maximum non-toxic concentration, and proceeded serially 3-fold dilution with culture medium. All cytotoxicity and activity assay for each compound was repeated for three times, and the data was indicated as average ± SD.
(§4) Confluent Vero cells grown in 96-well microplates were infected respectively with 100 median tissue culture infective dose (TCID50) EV 71. After 1 h adsorption at 37 °C, the monolayers were washed by PBS and incubated at 37 °C in the maintenance medium with or without different concentrations of test compounds.

[2] = tested on: EV 71 strain SZ-98 (genotype C4); assay: Anti EV 71 activity assay (CPE, Reed & Muench) in Vero cells, strain SZ-98; type: cell-based, Enterovirus 71; conditions: Enterovirus A, Vero, EV 71 strain SZ-98, Vero cells, 100 TCID50, CPE; average ± SD, n=3
Method: as §1, §2, §3, §4

[3] = tested on: EV 71 strains SZ-98, JS-52-3, H, BrCr; assay: Anti EV 71 activity assay in Vero cells, summary over the four strains tested; type: cell-based, Enterovirus 71
Method: as §1, §2, §3, §4

[4] = tested on: EV 71 strain JS-52-3 (genotype C4); assay: Anti EV 71 activity assay (CPE, Reed & Muench) in Vero cells, strain JS-52-3; type: cell-based, Enterovirus 71; conditions: for IC50: Enterovirus A, Vero, EV 71 strain JS-52-3, Vero cells, 100 TCID50, CPE, average ± SD, n=3; for SI JS-52-3: selectivity index TC50/IC50, strain JS-52-3, "-" stands for no antiviral selectivity
Method: as §1, §2, §3, §4

Vero cells = assay: Cytotoxicity determination in Vero cells monitored by cytopathic effect (CPE); type: cell-based; conditions: 48 h, Reed & Muench, concentration that inhibits 50% cellular growth, average ± SD, n=3
Method: as §2, with “Enterovirus 71 (EV 71) strain BrCr (VR-1775) was purchased from the American Type Culture Collection.” left out
as §3
The cytotoxicity of compounds in the presence of Vero cells was monitored by cytopathic effect (CPE). Vero cells (2.5 × 10^4/well) were plated into a 96-well plate. A total of 24 h later, the monolayer cells were incubated in the presence of various concentrations of test compounds. […] The median toxic concentration (TC50) was calculated by Reed & Muench analyses.

[5] = tested on: EV 71 strain H (genotype C2); assay: Anti EV 71 activity assay (CPE, Reed & Muench) in Vero cells, strain H; type: cell-based, Enterovirus 71; conditions: for IC50: Enterovirus A, Vero, EV 71 strain H (C2 genotype), Vero cells, 100 TCID50, CPE, average ± SD, n=3; for SI H: selectivity index TC50/IC50, strain H, "-" stands for no antiviral selectivity
Method: as §1, §2, §3, §4

16 enteroviruses = conditions: cited from earlier work

IC50 ([1]; Enterovirus A, Vero) [µM] | IC50 [2] [µM] | melting point [°C] | IC50 [4] [µM] | IC50 [5] [µM] | IC50 [1] [µM] | SMILES | SI BrCr [1] | anti-EV 71 activity (in words) ([3]; structure-activity discussion) | SI JS-52-3 [4] | TC50 (Vero cells) [µM] | SI H [5] | selectivity index (SI) values (range over strains) ([3]; TC50/IC50, range over the EV 71 strains tested) | concentration effective against 80% of 16 enteroviruses tested (16 enteroviruses) [µg/mL]
360 ± 26 | > 620 | 192 to 194 | 210 | 430 ± 36 |  | COc1ccc(C(=O)NC2CCCCC2)cc1NC(=O)C(C)F (stereo not drawn) [Compound 2b, N-Cyclohexyl-3-(2-fluoropropanamido)-4-methoxybenzamide] | >1.7 | no anti-EV 71 activity was observed | >3.0 | >620 | >1.4 |  | 
~15 | > 59 | 164 to 167 | 34 ± 2.5 | ~15 | 20 ± 3.1 | CCCNc1cc(C(=O)Nc2cc(OC)c(OC)c(OC)c2)ccc1OC [Compound 3g, 4-Methoxy-3-(propylamino)-N-(3,4,5-trimethoxyphenyl)benzamide] | 27 |  | 16 | 530 | 35 | 16–35 | 

SMILES | IC50 ([1]; Enterovirus A, Vero) [µM] | IC50 [2] [µM] | melting point [°C] | IC50 [4] [µM] | IC50 [5] [µM] | IC50 [1] [µM] | SI BrCr [1] | anti-EV 71 activity (in words) ([3]; structure-activity discussion) | SI JS-52-3 [4] | TC50 (Vero cells) [µM] | SI H [5] | selectivity index (SI) values (range over strains) ([3]; TC50/IC50, range over the EV 71 strains tested) | concentration effective against 80% of 16 enteroviruses tested (16 enteroviruses) [µg/mL]
CCOC(=O)c1ccc(OCCC2CCN(c3ccc(C)nn3)CC2)cc1 [Pirodavir, pirodavir, reference compound] | 1 ± 0.2 | 1.2 ± 0.2 |  | 1 ± 0.2 | 0.6 ± 0.1 |  |  |  |  | 31 ± 2.2 |  |  | 1.3
